Key:
[1] = target: T1, USP7, Active human recombinant protein (Homo sapiens, UniProt Q93009); test: USP7 assay (Ubiquitin-Rhodamine 110 enzymatic assay); format: biochemical; settings: read-out: IC50
T1 construct: purchased CP Lot; 20200225001
Procedure, shortened: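 Kinetic 20-min fluorescence read (485/535 nm) of ubiquitin-rhodamine 110 (190 nM final) cleavage by 0.05 nM USP7 gave slopes. Compounds, 10 concentrations in 3-fold steps, had 15 min RT preincubation with enzyme first. Inhibition relative to max (enzyme+substrate) and min (substrate only) signals, fitted to IC50.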

[2] = mouse liver microsomal stability (Microsome Assay Protocol); format: in vitro ADME; settings: pH 7.4; mouse liver microsomes, NADPH, 37° C.; read-out: MLM t1/2, min
Procedure: ND refers to not disclosed.
• 1. Buffer A: 1.0 L of 0.1 M monobasic Potassium Phosphate buffer containing 1.0 mM EDTA Buffer B: 1.0 L of 0.1 M Dibasic Potassium Phosphate buffer containing 1.0 mM EDTA • Buffer C: 0.1 M Potassium Phosphate buffer, 1.0 mM EDTA, pH 7.4 by titrating 700 mL of buffer B with buffer A while monitoring with a pH meter. • 2. Reference compound (Ketanserin) and test compounds spiking solution: • 500 μM spiking solution: added 10 μL of 10 mM DMSO stock solution into 190 μL ACN. • 1.5 μM spiking solution in microsomes (0.75 mg/mL): added 1.5 μL of 500 μM spiking solution and 18.75 μL of 20 mg/mL liver microsomes into 479.75 μL of Buffer C on ice. • 3. Prepared NADPH stock solution (6 mM) by dissolving NADPH into buffer C. Dispensed 30 μL of 1.5 μM spiking solution containing 0.75 mg/mL microsomes solution to the assay plates designated for different time points (0-, 5-, 15-, 30-, 45-min) on ice. For 0-min, added 135 μL of ACN containing IS to the wells of 0-min plate and then added 15 μL of NADPH stock solution (6 mM). Pre-incubated all other plates at 37° C. for 5 minutes. Added 15 μL of NADPH stock solution (6 mM) to the plates to start the reaction and timing. At 5-min, 15-min, 30-min, and 45-min, added 135 μL of ACN containing IS to the wells of corresponding plates, respectively, to stop the reaction. After quenching, shook the plates at the vibrator (IKA, MTS 2/4) for 10 min (600 rpm/min) and then centrifuged at 5594 g for 15 min (Thermo Multifuge×3R). Transferred 50 μL of the supernatant from each well into a 96-well sample plate containing 50 μL of ultra pure water (Millipore, ZMQS50F01) for LC/MS analysis.

T1 sequence (Q93009 whole entry): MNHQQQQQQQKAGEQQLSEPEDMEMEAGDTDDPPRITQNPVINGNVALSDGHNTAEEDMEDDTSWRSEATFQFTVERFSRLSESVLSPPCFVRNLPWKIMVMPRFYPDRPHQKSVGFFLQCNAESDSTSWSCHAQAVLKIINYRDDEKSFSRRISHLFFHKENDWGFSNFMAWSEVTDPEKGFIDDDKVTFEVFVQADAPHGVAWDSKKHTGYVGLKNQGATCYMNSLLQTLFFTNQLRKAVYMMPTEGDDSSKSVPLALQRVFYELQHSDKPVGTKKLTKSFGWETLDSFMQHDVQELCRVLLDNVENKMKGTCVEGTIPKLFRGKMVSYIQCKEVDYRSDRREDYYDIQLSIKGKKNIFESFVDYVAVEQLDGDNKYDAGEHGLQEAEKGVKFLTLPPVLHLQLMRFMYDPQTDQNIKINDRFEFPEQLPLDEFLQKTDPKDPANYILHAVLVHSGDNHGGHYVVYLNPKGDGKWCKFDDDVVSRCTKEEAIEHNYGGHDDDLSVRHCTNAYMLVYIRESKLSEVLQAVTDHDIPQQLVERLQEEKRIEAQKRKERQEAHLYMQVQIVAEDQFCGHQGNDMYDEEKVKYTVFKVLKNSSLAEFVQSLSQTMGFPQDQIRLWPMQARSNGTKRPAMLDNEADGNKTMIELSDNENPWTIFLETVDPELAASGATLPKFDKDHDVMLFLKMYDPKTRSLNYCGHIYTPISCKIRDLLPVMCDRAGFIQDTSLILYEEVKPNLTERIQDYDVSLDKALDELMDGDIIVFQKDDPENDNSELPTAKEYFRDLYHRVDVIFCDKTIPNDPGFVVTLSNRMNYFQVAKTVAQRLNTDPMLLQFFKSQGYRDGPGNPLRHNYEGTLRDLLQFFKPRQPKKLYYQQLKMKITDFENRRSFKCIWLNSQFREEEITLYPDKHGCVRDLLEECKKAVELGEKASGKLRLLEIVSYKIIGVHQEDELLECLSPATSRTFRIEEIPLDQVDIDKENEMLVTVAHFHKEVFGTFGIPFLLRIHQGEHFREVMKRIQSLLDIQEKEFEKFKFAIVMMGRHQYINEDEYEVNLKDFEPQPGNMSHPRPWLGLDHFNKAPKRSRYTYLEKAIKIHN

**Q.** For `O=C(NCCCC(Cc1ccccc1)C(=O)N1CCC(O)(Cn2cnc3c(cnn3-c3ccc(F)cc3)c2=O)CC1)c1ccc2c(Cl)ccnc2c1` (stereo not drawn) [Compound 6, N-(4-benzyl-5-(4-((1-(4-fluorophenyl)-4-oxo-1,4-dihydro-5H-pyrazolo[3,4-d]pyrimidin-5-yl)methyl)-4-hydroxypiperidin-1-yl)-5-oxopentyl)-4-chloroquinoline-7-carboxamide], which IC50 [1] is on record?
**A.** Its IC50 is 20 to 100 nM.

**Q.** What about the half-life at 1 µM [2] of the same compound?
**A.** The half-life at 1 µM was 1 min.

**Q.** Which results are given for `CN(C)CCC(=O)Nc1ccc2c(=O)n(CC3(O)CCN(C(=O)C(CCCNC(=O)c4ccc5c(Cl)cc(O)nc5c4)Cc4ccccc4)CC3)cnc2c1` (stereo not drawn) [Compound 65]?
**A.** IC50 [1]: 100 to 1000 nM; half-life at 1 µM [2]: 12.8 min

**Q.** For `CN(C)CCCOc1ccc2c(=O)n(CC3(O)CCN(C(=O)[C@H](CCCNC(=O)c4ccc5c(Cl)c6c(nc5c4)CCNC6=O)Cc4ccccc4)CC3)cnc2c1`, which IC50 [1] is on record?
**A.** The IC50 was 100 to 1000 nM.

**Q.** What about the half-life at 1 µM [2] of the same compound?
**A.** The half-life at 1 µM was 10.2 min.

**Q.** Which results are given for `O=C(CN1CCN(C(=O)c2ccc3c(Cl)c4c(nc3c2)CCCC4)CC1)N1CCC(O)(Cn2cnc3cc(Cl)ccc3c2=O)CC1`?
**A.** IC50 [1]: > 1000 nM; half-life at 1 µM [2]: 2.31 min

**Q.** With `CN(C)CCCOc1ccc2c(=O)n(CC3(O)CCN(C(=O)[C@H](CCCNC(=O)c4ccc5c(Cl)c(C(=O)N(C)C)cnc5c4)Cc4ccccc4)CC3)cnc2c1` as the compound, how does the IC50 [1] read?
**A.** The IC50 was 100 to 1000 nM.

**Q.** What about the half-life at 1 µM [2] of the same compound?
**A.** The half-life at 1 µM was 33.8 min.

**Q.** Which IC50 [1] does the source give for `CN(C)CCC(=O)Nc1ccc2c(=O)n(CC3(O)CCN(C(=O)C(CCCNC(=O)c4ccc5c(Cl)ccnc5n4)Cc4ccccc4)CC3)cnc2c1` (stereo not drawn) [Compound 47, N-(4-benzyl-5-(4-((7-(3-(dimethylamino)propanamido)-4-oxoquinazolin-3(4H)-yl)methyl)-4-hydroxypiperidin-1-yl)-5-oxopentyl)-5-chloro-1,8-naphthyridine-2-carboxamide] here?
**A.** Its IC50 is 20 to 100 nM.

**Q.** What about the half-life at 1 µM [2] of the same compound?
**A.** Its half-life at 1 µM is 12.4 min.

**Q.** Which IC50 [1] does the source give for `O=C(CCn1ccnc1)Nc1ccc2c(=O)n(CC3(O)CCN(C(=O)C(CCCNC(=O)c4ccc5c(Cl)ccnc5c4)Cc4ccccc4)CC3)cnc2c1` (stereo not drawn) [Compound 63, N-(5-(4-((7-(3-(1H-imidazol-1-yl)propanamido)-4-oxoquinazolin-3(4H)-yl)methyl)-4-hydroxypiperidin-1-yl)-4-benzyl-5-oxopentyl)-4-chloroquinoline-7-carboxamide] here?
**A.** Its IC50 is 100 to 1000 nM.

**Q.** And the half-life at 1 µM [2]?
**A.** Its half-life at 1 µM is 4.16 min.

**Q.** What does the source list for `CN(C)CCCOc1ccc2c(=O)n(CC3(O)CCN(C(=O)C(CCNC(=O)c4ccc5c(Cl)c(C(N)=O)cnc5c4)Cc4ccccc4)CC3)cnc2c1` (stereo not drawn)?
**A.** IC50 [1]: < 20 nM; half-life at 1 µM [2]: 28.2 min

**Q.** What does the source list for `CN(C)CCC(=O)Nc1ccc2c(=O)n(CC3(O)CCN(C(=O)C4CN(CCNC(=O)c5ccc6c(Cl)ccnc6c5)CC4Cc4ccccc4)CC3)cnc2c1` (stereo not drawn) [Compound 54]?
**A.** IC50 [1]: 20 to 100 nM; half-life at 1 µM [2]: 36.5 min

**Q.** With `CN(C)CCCOc1ccc2c(=O)n(CC3(O)CCN(C(=O)C(Cc4ccccc4)N(C)CCNC(=O)c4ccc5c(Cl)c(C(N)=O)cnc5c4)CC3)cnc2c1` (stereo not drawn) as the compound, how does the IC50 [1] read?
**A.** The IC50 was under 20 nM.

**Q.** And the half-life at 1 µM [2]?
**A.** The half-life at 1 µM was 36.4 min.

**Q.** For `CN1CCN(CCn2cc3ncn(CC4(O)CCN(C(=O)C(CCCNC(=O)c5ccc6c(Cl)ccnc6c5)Cc5ccccc5)CC4)c(=O)c3n2)CC1` (stereo not drawn) [Compound 27], which IC50 [1] is on record?
**A.** The IC50 was over 1000 nM.

**Q.** And the half-life at 1 µM [2]?
**A.** The half-life at 1 µM was 20 min.

**Q.** For `CNc1cc(Cl)c2ccc(C(=O)NCCCC(Cc3ccccc3)C(=O)N3CCC(O)(Cn4cnc5cc(NC(=O)CCN(C)C)ccc5c4=O)CC3)cc2n1` (stereo not drawn) [Compound 69], which IC50 [1] is on record?
**A.** Its IC50 is over 1000 nM.

**Q.** What about the half-life at 1 µM [2] of the same compound?
**A.** Its half-life at 1 µM is 4.5 min.

**Q.** With `CN(C)CCCOc1ccc2c(=O)n(CC3(O)CCN(C(=O)C(CCCNC(=O)c4ccc5c(Cl)c6c(nc5c4)CCN(C)C6=O)Cc4ccccc4)CC3)cnc2c1` (stereo not drawn) as the compound, how does the IC50 [1] read?
**A.** The IC50 was 20 to 100 nM.

**Q.** What about the half-life at 1 µM [2] of the same compound?
**A.** Its half-life at 1 µM is 14.4 min.

**Q.** Which IC50 [1] does the source give for `CC(C)c1cnc2cc(C(=O)NCCC[C@H](Cc3ccccc3)C(=O)N3CCC(O)(Cn4cnc5cc(NC(=O)CCN(C)C)ccc5c4=O)CC3)ccc2c1Cl` [Compound 119] here?
**A.** The IC50 was under 20 nM.

**Q.** And the half-life at 1 µM [2]?
**A.** The half-life at 1 µM was 3.04 min.

**Q.** What does the source list for `CC(c1ccccc1)C(CCCNC(=O)c1ccc2c(Cl)cc(C3CC3)nc2c1)C(=O)N1CCC(O)(Cn2cnc3cc(OCCCN(C)C)ccc3c2=O)CC1` (stereo not drawn)?
**A.** IC50 [1]: 20 to 100 nM; half-life at 1 µM [2]: 7.27 min

**Q.** For `CN1CCN(CCC(=O)Nc2ccc3c(=O)n(CC4(O)CCN(C(=O)C(CCCNC(=O)c5ccc6c(Cl)cc(-c7cnn(CC(F)(F)F)c7)nc6c5)Cc5ccccc5)CC4)cnc3c2)CC1` (stereo not drawn) [Compound 18, N-(4-benzyl-5-(4-hydroxy-4-((7-(3-(4-methylpiperazin-1-yl)propanamido)-4-oxoquinazolin-3(4H)-yl)methyl)piperidin-1-yl)-5-oxopentyl)-4-chloro-2-(1-(2,2,2-trifluoroethyl)-1H-pyrazol-4-yl)quinoline-7-carboxamide], which IC50 [1] is on record?
**A.** Its IC50 is 20 to 100 nM.

**Q.** And the half-life at 1 µM [2]?
**A.** Its half-life at 1 µM is 21.2 min.

**Q.** Which IC50 [1] does the source give for `CN(C)CCC(=O)Nc1ccc2c(=O)n(CC3(O)CCN(C(=O)C(CCCNC(=O)c4ccc5c(Cl)ccnc5c4)Cc4ccc(F)cc4)CC3)cnc2c1` (stereo not drawn) [Compound 81] here?
**A.** Its IC50 is 20 to 100 nM.

**Q.** And the half-life at 1 µM [2]?
**A.** The half-life at 1 µM was 11.8 min.

**Q.** What does the source list for `CN(C)CCC(=O)Nc1ccc2c(=O)n(CC3(O)CCN(C(=O)c4cn(CCNC(=O)c5ccc6c(Cl)ccnc6c5)nc4Cc4ccccc4)CC3)cnc2c1` [Compound 52, N-(2-(3-benzyl-4-(4-((7-(3-(dimethylamino)propanamido)-4-oxoquinazolin-3(4H)-yl)methyl)-4-hydroxypiperidine-1-carbonyl)-1H-pyrazol-1-yl)ethyl)-4-chloroquinoline-7-carboxamide]?
**A.** IC50 [1]: 100 to 1000 nM; half-life at 1 µM [2]: 15.1 min

**Q.** Which results are given for `O=C(CCN1CCOCC1)Nc1ccc2c(=O)n(CC3(O)CCN(C(=O)C(CCCNC(=O)c4ccc5c(Cl)ccnc5c4)Cc4ccccc4)CC3)cnc2c1` (stereo not drawn) [Compound 60, N-(4-benzyl-5-(4-hydroxy-4-((7-(3-morpholinopropanamido)-4-oxoquinazolin-3(4H)-yl)methyl)piperidin-1-yl)-5-oxopentyl)-4-chloroquinoline-7-carboxamide]?
**A.** IC50 [1]: 20 to 100 nM; half-life at 1 µM [2]: 2.71 min

**Q.** With `CNc1cc(Cl)nc2cc(C(=O)NCCCC(Cc3ccccc3)C(=O)N3CCC(O)(Cn4cnc5cc(NC(=O)CCN(C)C)ccc5c4=O)CC3)ccc12` (stereo not drawn) [Compound 70] as the compound, how does the IC50 [1] read?
**A.** The IC50 was 20 to 100 nM.

**Q.** And the half-life at 1 µM [2]?
**A.** The half-life at 1 µM was 10.3 min.

**Q.** Which results are given for `CN(C)CC(=O)Nc1ccc2c(=O)n(CC3(O)CCN(C(=O)C(CCCNC(=O)c4ccc5c(Cl)c6c(nc5c4)CN(C)C6)Cc4ccccc4)CC3)cnc2c1` (stereo not drawn) [Compound 31, N-(4-benzyl-5-(4-((7-(2-(dimethylamino)acetamido)-4-oxoquinazolin-3(4H)-yl)methyl)-4-hydroxypiperidin-1-yl)-5-oxopentyl)-9-chloro-2-methyl-2,3-dihydro-1H-pyrrolo[3,4-b]quinoline-6-carboxamide]?
**A.** IC50 [1]: 100 to 1000 nM; half-life at 1 µM [2]: 2.9 min

**Q.** For `CN(C)CCC(=O)Nc1ccc2c(=O)n(CC3(O)CCN(C(=O)C(CCCNC(=O)c4ccc5c(Cl)cc(C(N)=O)nc5c4)Cc4ccccc4)CC3)cnc2c1` (stereo not drawn) [Compound 71], which IC50 [1] is on record?
**A.** The IC50 was 100 to 1000 nM.

**Q.** And the half-life at 1 µM [2]?
**A.** Its half-life at 1 µM is 54.6 min.

**Q.** Which IC50 [1] does the source give for `Cc1cc(Cl)c2ccc(C(=O)N3CCN(CC(=O)N4CCC(O)(Cn5cnc6cc(Cl)ccc6c5=O)CC4)CC3)cc2n1` [Compound 80] here?
**A.** The IC50 was over 1000 nM.

**Q.** And the half-life at 1 µM [2]?
**A.** Its half-life at 1 µM is 5.41 min.

**Q.** What does the source list for `CN(C)CCC(=O)Nc1ccc2c(=O)n(CC3(O)CCN(C(=O)c4cn(CCNC(=O)c5ccc6c(Cl)ccnc6c5)nc4C4CC4)CC3)cnc2c1` [Compound 56, 4-chloro-N-(2-(3-cyclopropyl-4-(4-((7-(3-(dimethylamino)propanamido)-4-oxoquinazolin-3(4H)-yl)methyl)-4-hydroxypiperidine-1-carbonyl)-1H-pyrazol-1-yl)ethyl)quinoline-7-carboxamide]?
**A.** IC50 [1]: > 1000 nM; half-life at 1 µM [2]: 95.9 min

Reference: patent publication US20240376076A1, “INHIBITORS TARGETING UBIQUITIN SPECIFIC PROTEASE 7 (USP7)” (Dana-Farber Cancer Institute, Inc., priority 2021, published 2024)
